Data reported in patent US9815863B2, “Hydrogen bond forming fluoro ketolides for treating diseases” (priority 2010, dated 2017).
pIC50: −log10 of the molar value.

Legend:
[1] = test system: S. pneumoniae ATCC 49619/WT; test: Conventional antibacterial screen; type: cell-based
S. pneumoniae 117-20B/WT = test: Conventional antibacterial screen; type: cell-based
[2] = test system: S. pneumoniae 014-4331A/mefA; test: Conventional antibacterial screen; type: cell-based
[3] = test system: S. pneumoniae 007-4589A/ermB; test: Conventional antibacterial screen; type: cell-based
[4] = test system: S. pneumoniae 120-1037B/-ermB/mefA; test: Conventional antibacterial screen; type: cell-based
S. pyogenes ATCC 19615 = test: Conventional antibacterial screen; type: cell-based
[5] = test system: S. pyogenes 129-7129A/ermA; test: Conventional antibacterial screen; type: cell-based
[6] = test system: S. pyogenes 089-14217A/ermB; test: Conventional antibacterial screen; type: cell-based
S. aureus 024-11A/WT = test: Conventional antibacterial screen; type: cell-based
S. aureus ATCC 29213/WT = test: Conventional antibacterial screen; type: cell-based
S. aureus BAA-977/ermA = test: Conventional antibacterial screen; type: cell-based
S. aureus D-5/ermA = test: Conventional antibacterial screen; type: cell-based
M. luteus ATCC 9341/WT = test: Conventional antibacterial screen; type: cell-based
E. coli ATCC 25922/WT = test: Conventional antibacterial screen; type: cell-based
E. coli 122-5930A/WT = test: Conventional antibacterial screen; type: cell-based
[7] = test system: E. coli ribosomes (23S rRNA); test: RNA footprinting (ribosome chemical probing), wild-type E. coli ribosomes; type: binding; settings: 100 μM antibiotic; for Protection of A752 from DMS modification: E. coli ribosomes
Procedure: (§1) Ribosome chemical probing. rRNA probing was done following standard protocols (Merryman, C., and H. F. Noller. 1998. Footprinting and modification-interference analysis of binding sites on RNA, p. 237-253. In C. W. J. Smith (ed.), RNA:Protein Interactions, A Practical Approach. Oxford University Press, Oxford), with minor modifications. Briefly, 200 nM ribosomes were incubated with 100 μM antibiotic in 50 μL of buffer B (80 mM HEPES-KOH [pH 7.8], 20 mM MgCl2, 100 mM NH4Cl, 1.5 mM dithiothreitol) for 10 min at 37° C., followed by 10 min at 20° C. Modifying reagents (dimethyl sulfate [DMS], kethoxal, or 1-cyclohexyl-3-(2-morpholinoethyl)carbodiimide metho p-toluene sulfonate [CMCT]) were added and the modification reaction was carried out for 10 min at 37° C. After quenching the reaction and ethanol precipitation, rRNA was extracted and the distribution of modified nucleotides was assessed by primer extension.
(§2) Interactions of CEM-101 with wild-type E. coli and S. aureus ribosomes in solution. […] 1987. Chloramphenicol, erythromycin, carbomycin and vernamycin B protect overlapping sites in the peptidyl transferase region of 23S ribosomal RNA. Biochimie 69:879-884). Also included in this study was a C3-cladinose cousin of CEM-101, CEM-103, which lacks the C2-linked fluorine atom.

[8] = test system: S. aureus ribosomes (23S rRNA); test: RNA footprinting (ribosome chemical probing), wild-type S. aureus ribosomes; type: binding; settings: 100 μM antibiotic; for Protection of A752 from DMS modification: S. aureus ribosomes
Procedure: as §1, §2

[9] = test system: 2058-dimethylated ribosomes isolated from the S. aureus N315 strain; test: RNA footprinting of A2058-dimethylated (Erm-modified) ribosomes from S. aureus N315; type: binding; settings: S. aureus N315 ribosomes dimethylated at A2058, drugs at 100 μM
Procedure: as §1
Interaction of CEM-101 with S. aureus ribosomes dimethylated at A2058 by Erm-methyltransferase. Erm-methyltransferase modifies A2058 in 23S rRNA by consecutively adding two methyl groups to the exocyclic amino group of the adenine base. Such modification completely blocks binding of erythromycin and similar macrolides, whereas its effect on binding of ketolides is less clear (Douthwaite, S., L. H. Hansen, and P. Mauvais. 2000. Macrolide-ketolide inhibition of MLS-resistant ribosomes is improved by alternative drug interaction with domain R of 23S rRNA. Mol. Microbiol. 36:183-193; Liu, M., and S. Douthwaite. 2002. Activity of the ketolide telithromycin is refractory to Erm monomethylation of bacterial rRNA. Antimicrob. Agents Chemother. 46:1629-1633). Therefore, interaction of CEM-101 with the ribosomes isolated from a clinical S. aureus strain N315, which carries five chromosomal copies of constitutively expressed ermA gene present in the Tn554 transposon (Kuroda, M., T. Ohta, I. Uchiyama, T. Baba, H. Yuzawa, I. Kobayashi, L. Cui, A. Oguchi, K. Aoki, Y. Nagai, J. Lian, T. Ito, M. Kanamori, H. Matsumaru, A. Maruyama, H. Murakami, A. Hosoyama, Y. Mizutani-Ui, N. K. Takahashi, T. Sawano, R. Inoue, C. Kaito, K. Sekimizu, H. Hirakawa, S. Kuhara, S. Goto, J. Yabuzaki, M. Kanehisa, A. Yamashita, K. Oshima, K. Furuya, C. Yoshino, T. Shiba, M. Hattori, N. Ogasawara, H. Hayashi, and K. Hiramatsu. 2001. Whole genome sequencing of meticillin-resistant Staphylococcus aureacs. Lancet 357:1225-1240) was investigated.
Footprinting analysis was used to test interactions of ketolides (CEM-101 and telithromycin) and cladinose-containing macrolides (CEM-103 and erythromycin) with the 2058-dimethylated ribosomes isolated from the S. aureus N315 strain. Ribosomes were incubated with the drugs (present at 100 μM concentration) and probed by DMS modification. Because dimethylated A2058 blocks progression of reverse transcriptase along the RNA template, a strong reverse transcriptase stop is observed at A2058 on the primer extension gel (Vester, B., and S. Douthwaite. 1994. Domain V of 23S rRNA contains all the structural elements necessary for recognition by the ErmE methyltransferase. J. Bacteriol. 176:6999-7004; Zhong, P., Z. Cao, R. Hammond, Y. Chen, J. Beyer, V. D. Shortridge, L. Y. Phan, S. Pratt, J. Capobianco, K. A. Reich, R. K. Flamm, Y. S. Or, and L. Katz. 1999. Induction of ribosome methylation in MLS-resistant Streptococcus pneumoniae by macrolides and ketolides. Microb. Drug Resist. 5:183-188). Therefore, it is impossible to use footprinting to evaluate interactions of macrolides with this position in the S. aureus N315 ribosomes. […]

[10] = test system: bacterial protein synthesis (E. coli S30 extract); test: E. coli cell-free transcription-translation (TnT) S30 system, firefly luciferase synthesis; settings: read-out: IC50 of inhibition of firefly luciferase synthesis, ribosomes 600 nM
[11] = test system: Streptococcus pneumoniae Pen^S, Tel^S, Mac^S; test: MIC against streptococci clinical isolates (Table 3); type: cell-based; settings: 10 strains
[12] = test system: Streptococcus pneumoniae Pen^R, Tel^1/^R, Mac^R; test: as above; type: cell-based; settings: S. pneumoniae Pen^R, 12 strains, constitutive ermB
[13] = test system: Streptococcus pyogenes Tel^S, Mac^S; test: as above; type: cell-based; settings: 10 strains
[14] = test system: Streptococcus pyogenes Tel^R, Mac^R; test: as above; type: cell-based; settings: S. pyogenes Tel^R, Mac^R; 9 strains (8 ermB, 1 ermA, constitutive)

With `CC[C@H]1OC(=O)[C@H](C)C(=O)[C@H](C)[C@@H](OC2O[C@H](C)C[C@H](N(C)C)[C@H]2O)[C@@](C)(OC)C[C@@H](C)C(=O)[C@H](C)[C@H]2N(CCCCn3cc(Cc4c[nH]c5ccccc45)nn3)C(=O)O[C@]12C` (stereo partly shown) [CEM-199, 5-O-desosaminyl-11-N-[4-[4-(indol-3-ylmethyl)[1,2,3]triazol-1-yl]butyl]-6-O-methyl-3-oxo-erythronolide A 11,12-cyclic carbamate] as the compound, how does the Screening result [1] read?
Its Screening result is 0.06.

And the Screening result (S. pneumoniae 117-20B/WT)?
Its Screening result is 0.06.

And the Screening result [2]?
The Screening result was 1.

What about the Screening result [3] of the same compound?
Its Screening result is 0.12.

And the Screening result [4]?
The Screening result was 0.5.

What about the Screening result (S. pyogenes ATCC 19615) of the same compound?
The Screening result was 0.06.

And the Screening result [5]?
The Screening result was 0.12.

And the Screening result [6]?
Its Screening result is 1.

And the Screening result (S. aureus 024-11A/WT)?
Its Screening result is 0.5.

And the Screening result (S. aureus ATCC 29213/WT)?
Its Screening result is 0.5.

What about the Screening result (S. aureus BAA-977/ermA) of the same compound?
Its Screening result is 0.5.

And the Screening result (S. aureus D-5/ermA)?
Its Screening result is >16.

And the Screening result (M. luteus ATCC 9341/WT)?
Its Screening result is 0.06.

And the Screening result (E. coli ATCC 25922/WT)?
The Screening result was 16.

What about the Screening result (E. coli 122-5930A/WT) of the same compound?
Its Screening result is 16.

With `CC[C@H]1OC(=O)[C@H](C)C(=O)[C@H](C)[C@@H](O[C@@H]2O[C@H](C)C[C@H](N(C)C)[C@H]2O)[C@](C)(OC)C[C@@H](C)C(=O)[C@H](C)[C@H]2N(CCCCn3cnc(-c4cccnc4)c3)C(=O)O[C@]12C` [telithromycin] as the compound, how does the “Protection of A752 from DMS modification” value [7] read?
Its value is “strongly protects”.

What about the “Protection of A752 from DMS modification” value [8] of the same compound?
Its value is “strongly protects”.

And the “Protection of A2059 from DMS modification (binding to Erm-modified ribosome)” value [9]?
The value was “protected A2059 but to a lesser extent than CEM-101 or CEM-103”.

What about the “Protection of G2505 from kethoxal modification” value [9] of the same compound?
Its value is “notably weaker protection”.

And the “Protection of U2609 from modification with CMCT” value [9]?
The value was “notably weaker protection”.

And the pIC50 [10]?
The pIC50 was 6.30.

With `CC[C@H]1OC(=O)[C@H](C)[C@@H](O[C@H]2C[C@@](C)(OC)[C@@H](O)[C@H](C)O2)[C@H](C)[C@@H](O[C@@H]2O[C@H](C)C[C@H](N(C)C)[C@H]2O)[C@](C)(O)C[C@@H](C)CN(C)[C@H](C)[C@@H](O)[C@]1(C)O` [azithromycin] as the compound, how does the pIC50 [10] read?
The pIC50 was 6.52.

What does the source list for “11-N-[4-[4-(3-aminophenyl)[1,2,3]triazol-1-yl]butyl]-6-O-methylerythromycin A 11,12-cyclic carbamate [CEM-103]”?
Protection of A752 from DMS modification [7]: strongly protects; Protection of A2058 and A2059 in domain V of 23S rRNA from modification with DMS ([7]; E. coli wild-type ribosomes): protect; Protection of A752 from DMS modification [8]: strongly protects; Protection of A2058 and A2059 in domain V of 23S rRNA from modification with DMS ([8]; S. aureus wild-type ribosomes): protect; Protection of A2059 from DMS modification (binding to Erm-modified ribosome) [9]: protection of A2059 from DMS modification; Protection of G2505 from kethoxal modification [9]: partially protected; Protection of U2609 from modification with CMCT [9]: fully protected

How did the MIC50 [11] turn out when “11-N-[4-[4-(3-aminophenyl)[1,2,3]triazol-1-yl]butyl]-5-O-desosaminyl-6-O-methyl-3-oxo-erythronolide A 11,12-cyclic carbamate [CEM-Des-F]” was run?
The MIC50 was 0.03 µg/mL.

What about the MIC90 [11] of the same compound?
The MIC90 was 0.03 µg/mL.

What about the MIC50 [12] of the same compound?
Its MIC50 is 4 µg/mL.

And the MIC90 [12]?
Its MIC90 is 4 µg/mL.

And the MIC50 [13]?
The MIC50 was 0.03 µg/mL.

What about the MIC90 [13] of the same compound?
Its MIC90 is 0.03 µg/mL.

What about the MIC50 [14] of the same compound?
Its MIC50 is 2 µg/mL.

And the MIC90 [14]?
Its MIC90 is 2 µg/mL.

What does the source list for `CC[C@H]1OC(=O)[C@@](C)(F)C(=O)[C@H](C)[C@@H](OC2O[C@H](C)C[C@H](N(C)C)[C@H]2O)[C@@](C)(OC)C[C@@H](C)C(=O)[C@H](C)[C@H]2N(CCCCn3cc(Cc4c[nH]c5ccccc45)nn3)C(=O)O[C@]12C` (stereo partly shown) [CEM-219, 2-fluoro-5-O-desosaminyl-11-N-[4-[4-(indol-3-ylmethyl)[1,2,3]triazol-1-yl]butyl]-6-O-methyl-3-oxo-erythronolide A 11,12-cyclic carbamate]?
Screening result [1]: ≦0.015; Screening result (S. pneumoniae 117-20B/WT): ≦0.015; Screening result [2]: 0.5; Screening result [3]: ≦0.015; Screening result [4]: 0.12; Screening result (S. pyogenes ATCC 19615): ≦0.015; Screening result [5]: ≦0.015; Screening result [6]: 0.5; Screening result (S. aureus 024-11A/WT): 0.5; Screening result (S. aureus ATCC 29213/WT): 0.25; Screening result (S. aureus BAA-977/ermA): 0.25; Screening result (S. aureus D-5/ermA): >16; Screening result (M. luteus ATCC 9341/WT): ≦0.015; Screening result (E. coli ATCC 25922/WT): >16; Screening result (E. coli 122-5930A/WT): >16
